# Data published in patent US9598448B2, “Osmium (II) arene imino anti-cancer complexes” (University of Warwick, priority 2010, dated 2017).
# Legend:
# [1] = system: human tumor 60-cell line panel; assay: NCI/DTP human tumor 60-cell line panel screen; assay type: cell-based; settings: NCI 60-cell line panel, MG-MID, 48 h
# Experimental: The cells were treated for 48 h at five concentrations ranging from 0.01 to 100 μM. Three endpoints were calculated: GI 50 (the concentration inhibits cell growth by 50%):
# TGI (the concentration inhibits cell growth by 100%)
# LC 50 (the concentration kills original cells by 50%)
# MG-MID (full-panel mean-graph midpoint).
# A549 non-small cell lung = assay: MTT growth inhibition assay, A549; assay type: cell-based, human; settings: 96 h
# Experimental: Tumor cell growth inhibition was assessed using the MTT assay.^13 2×10^3 cells were inoculated into a 96-well plate and incubated overnight at 37° C. in a humidified atmosphere containing 5% CO2. Complexes were solubilised in DMSO as above, and then diluted in complete cell culture medium to give a broad range of concentrations. Cisplatin was included in the screen as a comparator. Medium was removed from each well and replaced with complex or control solutions, and the plates then incubated for a further 96 hours. After 96 h culture medium was removed and 200 μL of 0.5 mg mL^−1 MTT solution (Sigma) in complete medium added to each well. Following further 4 h incubation, the solution was removed from each well and 150 μL of DMSO (Sigma) added to solubilise the formazan crystals resulting from MTT conversion. Absorbance values for the resulting solutions were read at 550 nm on a microplate reader and cell survival calculated as the absorbance of treated cells divided by the control. Results were expressed in terms of IC50 values (i.e. concentration of compound required to kill 50% of cells) and all experiments were performed in triplicate.
# The following human cancer cell lines were cultured in RPMI 1640 cell culture medium supplemented with 1 mM sodium pyruvate, 2 mM L-glutamine and 10% fetal bovine serum (all from Sigma): A549 non-small cell lung, HCT-116 colon, MCF-7 breast, PC-3 prostate (all from LGC Promochem, Teddington, UK), A2780/cis ovarian (cisplatin-resistant) and RT-112 bladder (both from ECACC, Salisbury, UK).
# colon cancer OoLO 205 = assay: NCI 60-cell line screen, colon cancer line; assay type: cell-based, human; settings: colon cancer OoLO 205, 48 h
# Experimental: (§1) The cells were treated for 48 h at five concentrations ranging from 0.01 to 100 μM. Three endpoints were calculated: GI 50 (the concentration inhibits cell growth by 50%): […]
# Leukemia HL-60 (TB) = assay: NCI 60-cell line screen, HL-60 (TB); assay type: cell-based, human; settings: 48 h
# Experimental: as §1
# [2] = system: microtubules in A2780 human ovarian cancer cell line; assay: Immunofluorescence of microtubules by confocal microscopy; assay type: cell-based; settings: 24 h treatment, 1 μM
# Experimental: A2780 Cells were seeded on Lab-Tek™ Chamber Slides (Thermo Scientific Nunc) 10,000 cells/chamber, after 24 h incubation, osmium compound [Os(η^6-bip)(2-F-Azpy)I]PF6 at different concentrations were added and incubate for another 24 h. Cells were fixed with 4% formaldehyde in PBS (20 min, 310 K), then rinsed with PBS (3×2 mL×2 min), and permeabilized with 0.1% Triton X-100 solution (PBS solution) for 15 min at ambient temperature. The cells were blocked with blocking buffer (2 mg/mL BSA, overnight at […]), and then, the cell monolayers were incubated (1 h, 310 K) with monoclonal anti-α-tubulin-Alexa 488 (4 μg/mL) (Invitrogen Molecular Probles, Catalog No. 32-2588). After the incubation, the cells were washed with PBS and the immunofluorescence was detected using a Leica SP5 fluorescence confocal microscope, with 100× objective.
substance,measurement,setting,value
[(η^6-p-cym)Os(Azpy-NMe2)I]PF6 [Complex 6],GI50,[1],280 nM
same,LC50,[1],6300 nM
same,TGI,[1],1170 nM
same,IC50,A549 non-small cell lung,< 300 nM
same,GI50,colon cancer OoLO 205,< 50 nM
same,GI50,Leukemia HL-60 (TB),< 50 nM
same,inhibition of microtubule formation in cells,[2],inhibition forming microtubules were observed
